Experimental data taken from ChEMBL document CHEMBL2424626, “Synthesis and antiproliferative activities of quebecol and its analogs” (Bioorg Med Chem Lett, 2013).

Experiments:
MCF7 [1] = assay: Antiproliferative activity against human MCF7 cells after 72 hrs; type: functional, cell-based
MCF7 [2] = assay: Antiproliferative activity against human MCF7 cells assessed as cell viability at 75 uM after 72 hrs relative to control; type: functional; conditions: MCF7, 72 h
HeLa = assay: Antiproliferative activity against human HeLa cells assessed as cell viability at 75 uM after 72 hrs relative to control; type: functional
SK-OV-3 = assay: Antiproliferative activity against human SKOV3 cells assessed as cell viability at 75 uM after 72 hrs relative to control; type: functional; conditions: SK-OV-3, 72 h
HT-29 = assay: Antiproliferative activity against human HT-29 cells assessed as cell viability at 75 uM after 72 hrs relative to control; type: functional; conditions: HT-29, 72 h

Row | SMILES | IC50 (MCF7 [1]; mcf7) | IC50 (MCF7 [1]; Homo sapiens, MCF7, 72 h) | inhibition at 75 µM (MCF7 [2]) | inhibition at 75 µM (HeLa) | inhibition at 75 µM (SK-OV-3) | inhibition at 75 µM (HT-29)
1 | COc1cc(C(CO)C(c2ccc(O)c(OC)c2)c2ccc(O)c(OC)c2)ccc1O (stereo in doubt; 9a) | 103 µM |  |  |  |  | 
2 | CCOC(=O)C(c1ccccc1)C(c1ccc(O)cc1)c1ccc(O)cc1 (stereo not drawn) |  | 80.6 µM | 80% | 80% | 80% | 80%
3 | COc1cc(C(CO)C(c2ccc(O)c(OC)c2)c2ccc(O)c(OC)c2)ccc1O (stereo in doubt) |  | 104 µM |  |  |  | 
4 | CCOC(=O)C(c1cccc(OC)c1)C(c1ccc(O)cc1)c1ccc(O)cc1 (stereo not drawn) |  | 85.1 µM | 80% | 80% | 80% | 80%
5 | CCOC(=O)C(c1ccc(C)cc1)C(c1ccc(O)cc1)c1ccc(O)cc1 (stereo not drawn) |  | 78.7 µM | 80% | 80% | 80% | 80%
6 | OCC(c1ccccc1)C(c1ccc(O)cc1)c1ccc(O)cc1 (stereo not drawn) |  |  | 80% | 80% | 80% | 80%
7 | CCOC(=O)C(c1ccc(OC)cc1)C(c1ccc(O)cc1)c1ccc(O)cc1 (stereo not drawn) |  |  | 75% |  |  | 
8 | CCOC(=O)C(c1ccc(O)c(OC)c1)C(c1ccc(O)cc1)c1ccc(O)cc1 (stereo not drawn) |  |  | 75% |  |  | 
